Experimental data published in PMC11356839, “The Synthesis of SNAC Phenolate Salts and the Effect on Oral Bioavailability of Semaglutide” (Molecules, 2024).

How the values were obtained:
[1] = rat, in vivo
Protocol: All compounds are powders.
IV solution was prepared by dissolving semaglutide in water containing disodium phosphate (0.014% w/v), propylene glycol (0.144% w/v), and phenol (0.056% w/v). The solution was diluted by 3 to reach semaglutide concentration of 0.046mg/mL and filtrated by a sterile 0.22 μm syringe filter.
Pharmacokinetic study protocol: Male Wistar rats (275–300 g, Harlan, Israel) were kept under a 12 h light/dark cycle, with free access to food and water. Animals were anesthetized, and an indwelling cannula was placed into the right jugular vein for systemic blood sampling. The cannula was tunneled beneath the skin and exteriorized at the dorsal part of the neck. The animals were transferred to individual cages to recover overnight (12–18 h). Throughout the experiments, free access to food was available 4 h post-oral administration.
Oral SNAC or salt formulations were dispersed in distilled water and then administrated by oral gavage (~1.2 mL for a rat to get semaglutide dose of 12 mg/kg). Blood samples (0.36 mL) were obtained by intravenous cannula, placed into the jugular vein. In the case of oral administration, samples were taken at 5 min pre-dose intervals and at different time points post-dose, according to the pharmacokinetic profile (no more than 10% of rat blood volume was drawn). To prevent dehydration, physiological solutions were administered, following each blood sampling. Plasma was separated by centrifugation (4000 rpm, 7 min, 4 °C) and stored at −20 °C until use.
Plasma samples were analyzed by a developed LC-MS method for semaglutide.
Absolute bioavailability values and other pharmacokinetic observations were assessed by comparison to intravenous bolus of semaglutide.
Semaglutide in plasma was performed in an Eppendorf® tube by mixing 150 μL of the plasma sample with 150 μL acetonitrile (ACN) and 15 μL of 5% formic acid (FA) and vortexed for 5 min. The tube was centrifuged at 15 °C, 6000 rpm for 6 min. Then, 160 μL of the supernatant was collected in a new tube. A second extraction was performed for the remaining precipitant by adding 60 μL of 5% FA, followed by mixing and centrifugation. Supernatant, 50 μL, was transferred into a tube. The solvent was evaporated to dryness, reconstituted with 50 μL 5% FA, and analyzed by an LC-MS system. Semaglutide standards were prepared by spiking semaglutide solutions in 5% FA into plasma to obtain final concentrations of 1–0.005 μg/mL. The same extraction procedure was performed on the standards as well.
MS/MS analyses were determined on a Sciex (Framingham, MA, USA) QTRAP® 6500^+ mass spectrometer). The chromatography analysis was performed using reverse-phase conditions using a Shimadzu (Kyoto, Japan) UHPLC System, consisting of a Shimadzu CBM-20A communication bus module, Nexera X2 LC-30AD pump, including a Shimadzu DGU-20A5R degasser, a Shimadzu SIL-30AC autosampler, and a Shimadzu CTO-20AC column oven. Liquid chromatography separation was obtained using 10 μL injections of samples onto an XBridge Peptide BEH C18 column (3.5 µm 300Å, 50 × 2.1 mm) from Waters Corp. (Milford, MA, USA), protected by a SecurityGuard™ (Phenomenex, Torrance, CA, USA) cartridge (C18, 2 × 2.1 mm). The column was maintained at 40 °C during the entire analysis. Gradient elution mobile phases consisted of 0.1% formic acid in water (Phase A) and 0.1% formic acid in methanol (Phase B). A flow rate of 0.2 mL/min was applied with a linear gradient from 60% to 80% B over 3.5 min and then held at 80% B for additional 4.5 min. The column was then equilibrated for 6 min at starting conditions prior to the injection of the next sample. The gradient elution program (0.2 mL/min) is described in Table 1.

[2] = dogs, semaglutide formulated with SNAC tablet; cited from earlier work
Description: The professional literature has contained studies concerning the mechanism of SNAC to enhance permeability. […] SNAC increases lipophilicity of the formulation and causes a local increase in pH via a buffering action.

[3] = clinical study, cited from earlier work
Description: Preclinical studies reached similar conclusions, although with slightly different values. It is important to remember that the study model, as well as the specific drug being investigated, plays a role in the results, as the drug’s properties and size also affect its absorption. Semaglutide, being ...

## CC[C@H](C)[C@H](NC(=O)[C@H](Cc1ccccc1)NC(=O)[C@H](CCC(=O)O)NC(=O)[C@H](CCCCNC(=O)COCCOCCNC(=O)COCCOCCNC(=O)CC[C@H](NC(=O)CCCCCCCCCCCCCCCCC(=O)O)C(=O)O)NC(=O)[C@H](C)NC(=O)[C@H](C)NC(=O)[C@H](CCC(N)=O)NC(=O)CNC(=O)[C@H](CCC(=O)O)NC(=O)[C@H](CC(C)C)NC(=O)[C@H](Cc1ccc(O)cc1)NC(=O)[C@H](CO)NC(=O)[C@H](CO)NC(=O)[C@@H](NC(=O)[C@H](CC(=O)O)NC(=O)[C@H](CO)NC(=O)[C@@H](NC(=O)[C@H](Cc1ccccc1)NC(=O)[C@@H](NC(=O)CNC(=O)[C@H](CCC(=O)O)NC(=O)C(C)(C)NC(=O)[C@@H](N)Cc1cnc[nH]1)[C@@H](C)O)[C@@H](C)O)C(C)C)C(=O)N[C@@H](C)C(=O)N[C@@H](Cc1c[nH]c2ccccc12)C(=O)N[C@@H](CC(C)C)C(=O)N[C@H](C(=O)N[C@@H](CCCNC(=N)N)C(=O)NCC(=O)N[C@@H](CCCNC(=N)N)C(=O)NCC(=O)O)C(C)C [semaglutide, Semaglutide]
[1]
  semaglutide absorption after oral administration not including SNACs: negligible semaglutide absorption
[2]
  semaglutide concentration underneath the tablet compared to 6 cm at a further distance: 10 fold

## SNAC–phosphatidylcholine [PC]
[1]; po, 12 mg/kg
  AUC0−8: 5083 ± 1478 ng·h/mL
  AUC0−∞: 7729 ± 2928 ng·h/mL
  Cmax: 945 ± 295 ng/mL
  fold increase in AUC0−8 over the original SNAC formulation: ~ 3 fold
  fold increase in AUC0−∞ over the original SNAC formulation: ~ 4 fold
  fold increase in F% over the original SNAC formulation: ~ 4 fold

## vitamin B12
[3]; oral vitamin B12 affected by SNAC
  absolute absorption, formulation with SNAC: 5%
[3]; oral vitamin B12 commercial product
  absolute absorption, commercial product: 2%
